Assays:
[1] = target: T1, truncated, His-tagged human CYP17A1 (Homo sapiens, UniProt P05093, C22K/P23T/R20A/R21K); experiment: UV/vis spectral shift ligand binding assay
T1 sequence (P05093 with tags, fused parts or gaps limits assumed): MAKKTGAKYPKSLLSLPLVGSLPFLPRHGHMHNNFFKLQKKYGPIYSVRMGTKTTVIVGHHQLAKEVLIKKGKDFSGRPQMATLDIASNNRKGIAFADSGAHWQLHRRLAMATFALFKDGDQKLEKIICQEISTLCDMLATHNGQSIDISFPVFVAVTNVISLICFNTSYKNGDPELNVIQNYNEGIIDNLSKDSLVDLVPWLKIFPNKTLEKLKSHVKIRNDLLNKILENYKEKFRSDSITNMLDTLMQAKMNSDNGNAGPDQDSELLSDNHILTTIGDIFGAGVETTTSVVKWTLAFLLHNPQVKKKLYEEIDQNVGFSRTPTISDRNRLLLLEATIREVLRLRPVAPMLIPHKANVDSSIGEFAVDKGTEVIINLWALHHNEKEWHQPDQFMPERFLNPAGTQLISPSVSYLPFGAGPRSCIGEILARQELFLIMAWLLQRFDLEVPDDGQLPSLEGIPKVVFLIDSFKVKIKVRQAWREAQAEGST

truncated human CYP17A1 = target: T2, truncated human CYP17A1 (Homo sapiens, UniProt P05093, C22K/P23T/R20A/R21K); experiment: Progesterone 17α-hydroxylation, HPLC separation with UV detection; type: biochemical
T2 sequence (P05093 with tags, fused parts or gaps limits assumed): T1 sequence (P05093 with tags, fused parts or gaps limits assumed)

## C[C@]12CC[C@H](O)CC1=CC[C@@H]1[C@@H]2CC[C@]2(C)C(c3cccnc3)=CC[C@@H]12 [abiraterone, 17-(3-pyridyl)androsta-5,16-dien-3β-ol]
[1]
  Kd: < 0.1 µM
Truncated human CYP17A1
  IC50: 0.201 ± 0.001 µM

## C[C@]12CC[C@H](O)CC1=CC[C@@H]1[C@@H]2CC[C@]2(C)C(n3cnc4ccccc43)=CC[C@@H]12 [TOK-001, 3β-hydroxy-17-(1H-benzimidazole-1-yl)androsta-5,16-diene]
[1]
  Kd: < 0.1 µM
Truncated human CYP17A1
  IC50: 0.503 ± 0.001 µM

## CC(=O)[C@H]1CC[C@H]2[C@@H]3CCC4=CC(=O)CC[C@]4(C)[C@H]3CC[C@]12C [progesterone]
[1]
  Kd: 0.229 ± 0.014 µM

Source: paper PMC3271139 (Nature, 2012)
